Laboratory results as given in the NIST ThermoML archive (doi:10.1016/j.jct.2010.10.009).
± gives the expanded uncertainty stated by the source.

Settings: 298.15 K; Crystal; Vacuum Sublimation Drop (Calvet Microcalorimeter)

c1ccc2c(c1)CCc1ccccc1C2 [1,2:4,5-dibenzocycloheptane]
molar enthalpy of sublimation: 24.8 ± 0.956 kcal/mol
